Assay results as given in publication PMC8597046, “Use of Mixture Dosing and Nonlinear Mixed Effect Modeling of Eight Environmental Contaminants in Rabbits to Improve Extrapolation Value of Toxicokinetic Data” (Environmental Health Perspectives, 2021).

How the values were obtained:
in vivo [1] = test: in vivo
Procedure: The experiment was carried out on thirty 10-wk old female New Zealand white rabbits (INRA 1777 line) weighing 2.37±0.14kg . […] Blood samples were taken at the designated time points post IV and oral administration: 15 min, 30 min, 1 h, 2 h, 4 h, 8 h, 12 h, 24 h, 3 d, 7 d, and 28 d from groups of 3 or 6 rabbits at each sampling time. Each rabbit was sampled 3 times and 3 rabbits were sampled at each sampling time, except at 30 min post administration, when 6 samples were collected to provide a sufficient blood volume for assaying the compounds. The doses and assay time points were selected to allow the calculation of TK parameters (Table 1) based on preliminary TK data. Residual concentrations of the compounds, and their possible evolution over time, were determined by sampling six entirely untreated rabbits during the TK study on the day of drug administrations, then 14 d and 28 d later.
The volume administered was adjusted to the animal’s body weight (BW) recorded the day before.
Intravenous administrations were performed via an indwelling catheter (22G Terumo, 0.9×25mm ) just after its insertion into an ear vein. […] For oral administrations, the mixture of all compounds ( 4mL/kg ) was deposited directly in the mouth of rabbits using a catheter (22G BD Insyte 22G, 0.9×25mm ). Prior to the study, the rabbits had been trained to gradually swallow water and then corn oil.
Blood samples were collected from the auricular artery using a 20 G needle ( 0.9×25mm ) and a dry tube. The first two blood samples were 8–10mL in volume, whereas a large volume (about 20mL ) was obtained antemortem immediately after electrical stunning (95LX rabbit stunner; Burdis), followed by exsanguination.
Serum concentration-time profiles of the different compounds were first analyzed using a noncompartmental approach (NCA) involving a sparse data option. Sparse data methodology consists of calculating TK parameters based on the mean profile of all the subjects in the dataset and is appropriate when a rich data series cannot be obtained, as in the present experiment ([FDA 1999]). The area under the concentration time curve ( AUC0−tlast ) and the area under the first moment curve ( AUMC0−tlast ) from dosing time ( t=0 ) to the time of the last measurable concentration were calculated using the linear trapezoidal rule after IV and oral dosing. The area under the serum concentration time curve from dosing time to infinity ( AUC0−inf ) was obtained by adding to AUC0−tlast the area extrapolated from the time of the last measurable concentration to infinity by dividing the last quantifiable serum concentration by the slope of the terminal phase ( λZ ), as estimated by linear regression using the best fit option of Phoenix®.
The clearance (CL) and apparent clearance (CL_F) were respectively estimated after IV and oral administrations by dividing the administered dose by the AUC0−inf calculated for each analyte.
The terminal half-life (HL) was estimated with Equation 1: (1) HL=0.69315/λZ where λz is the slope of the terminal phase.
The mean residence time (MRT) was estimated using Equation 3: (3) MRT=AUMCiv0−tlast /AUCiv0−tlast , where AUCMiv0−tlast and AUCiv0−tlast are the values of AUMC0−tlast and AUC0−tlast obtained after IV dosing.
The steady-state volume of distribution ( VSS ) was estimated using Equation 4: (4) VSS=CL×MRT, with CL and MRT as defined above.

in vivo [2] = test: in vivo; remark: listed apart in the source
Procedure: The objective of this preliminary experiment was to check the ability of our approach to determine the loading and maintenance doses of the eight compounds to be administered simultaneously by oral route to reproduce in female rabbits targeted serum concentrations. The experiment was carried out on thirty-two 2-wk old female New Zealand white rabbits (INRA 1777 line) randomly allocated to a treatment and control groups of 16 rabbits weighing 309±45g and 298±62g , respectively. The treated rabbits were orally administrated a mixture of the eight compounds at a dosage corresponding to the sum of the loading and daily maintenance doses followed by daily administrations of the maintenance dose for 17 wk (see the “Estimation of the doses” section). The control group was orally administrated the vehicle for the same duration.
The volume of the maintenance dosing solution ( 1mL/kg ) was weekly adjusted to the mean BW estimated from the known pattern of growth of the INRA 1777 rabbit line. Oral dosing and antemortem blood sampling were performed as previously described.
Blood samples were left to clot for about 20–30 min at ambient temperature and centrifuged for 20 min at 3,000×g at 25°C. The separated serum was stored in glass tubes at −20°C until assayed.

[3] = Estimation of loading and daily maintenance doses and NLME model simulations; parameters: species or system female rabbits; settings: oral, DEHP dose for MEHP in serum
Procedure: The ultimate goal of this TK investigation was to compute a dosage regimen that allowed targeted steady-state serum concentrations to be attained rapidly for a planned TK/TD trial on the reprotoxic effect of a mixture of environmental contaminants in female rabbits. […] With that in mind, the loading and the daily maintenance doses of each compound were evaluated using Equations 12 and 13, respectively.
This risk was also the reason why the NLME model was employed to simulate the time development of the amounts of compounds in the central and peripheral compartments following administration of the daily maintenance dose of each compound over the same duration.
The loading and maintenance doses computed to ensure a nominal CSS of 1 ng/mL were scaled to determine the doses to be administrated by oral route to female rabbits to maintain the targeted CSS .

[4] = female, New Zealand white (INRA 1777 line), rabbit, in vivo, iv
[5] = female, New Zealand white, rabbit, in vivo, iv, Serum concentration
[6] = serum, IV mixture dosing, NCA, n=12
[7] = serum, IV mixture dosing, NCA, n=12, doses in Table 2 r3, BPSG after BPS dosing
[8] = terminal, IV mixture dosing, NCA, n=12

Compound: Clc1c(Cl)c(Cl)c(Cl)c(Cl)c1Cl [HCB, hexachlorobenzene]
- AUC(0-inf) (in vivo [1]; [4]): 4.52 µM·h
- Cmax (in vivo [1]; [4]): 19 nM
- MRT (in vivo [1]; [4]): 23 days
- clearance (in vivo [1]; [4]): 0.85 mL/min/kg
- half-life (in vivo [1]; [4]): 17.2 days
- Vd (in vivo [1]; female, New Zealand white (INRA 1777 line), rabbit, in vivo, iv, VSS): 28.1 L/kg
- Vd (in vivo [1]; female, New Zealand white (INRA 1777 line), rabbit, in vivo, iv, VZ): 30.5 L/kg
- Serum concentration (in vivo [1]; female, New Zealand white, rabbit, in vivo, iv, 24 h): 7.1 nM
- Serum concentration (in vivo [1]; female, New Zealand white, rabbit, in vivo, iv, 168 h): 6.4 nM
- concentration at 0.6 h (in vivo [1]; [5]): 11 nM
- concentration at 0.67 h (in vivo [1]; [5]): 19 nM
- concentration at 0.77 h (in vivo [1]; [5]): 15 nM
- concentration at 24 h (in vivo [1]; [5]): 8.2 nM
- concentration at 24.03 h (in vivo [1]; [5]): 6.1 nM
- concentration at 71.97 h (in vivo [1]; [5]): 4.2 nM
- concentration at 72 h (in vivo [1]; [5]): 5.8 nM
- concentration at 72.03 h (in vivo [1]; [5]): 6.5 nM
- concentration at 167.92 h (in vivo [1]; [5]): 4.1 nM
- concentration at 168 h (in vivo [1]; [5]): 5.2 nM
- concentration at 671.83 h (in vivo [1]; [5]): 2.7 nM
- concentration at 671.96 h (in vivo [1]; [5]): 2.3 nM
- concentration at 17 wk (in vivo [2]; female, New Zealand white (INRA 1777 line), rabbit, in vivo, po): 2.9 ± 1.5 ng/mL

Compound: CCCCC(CC)COC(=O)c1ccccc1C(=O)O (stereo not shown) [MEHP, mono(2-ethylhexyl)phthalate]
- CL (in vivo [1]; IV mixture dosing, NCA, n=12): 7.15 mL/min/kg
- MRT (in vivo [1]; IV mixture dosing, NCA, n=12): 0.679 days
- VSS (in vivo [1]; IV mixture dosing, NCA, n=12): 7.00 L/kg
- VZ (in vivo [1]; IV mixture dosing, NCA, n=12): 7.85 L/kg
- Serum concentration (in vivo [1]; IV, rabbit 1, 0.30 h): 11380 nM
- Serum concentration (in vivo [1]; IV, rabbit 1, 4.38 h): 72 nM
- Serum concentration (in vivo [1]; IV, rabbit 1, 24.03 h): < 18 nM
- Serum concentration (in vivo [1]; IV, rabbit 2, 0.28 h): 14440 nM
- Serum concentration (in vivo [1]; IV, rabbit 2, 4.05 h): 39 nM
- Serum concentration (in vivo [1]; IV, rabbit 3, 0.35 h): 3040 nM
- Serum concentration (in vivo [1]; IV, rabbit 3, 4.05 h): 59 nM
- Serum concentration (in vivo [1]; IV, rabbit 4, 0.62 h): 4130 nM
- Serum concentration (in vivo [1]; IV, rabbit 4, 8.33 h): 27.5 nM
- Serum concentration (in vivo [1]; IV, rabbit 4, 72.00 h): < 18 nM
- Serum concentration (in vivo [1]; IV, rabbit 5, 0.75 h): 3760 nM
- Serum concentration (in vivo [1]; IV, rabbit 5, 8.62 h): 42 nM
- Serum concentration (in vivo [1]; IV, rabbit 5, 72.03 h): < 18 nM
- Serum concentration (in vivo [1]; IV, rabbit 6, 0.57 h): 7060 nM
- Serum concentration (in vivo [1]; IV, rabbit 6, 7.98 h): 21 nM
- Serum concentration (in vivo [1]; IV, rabbit 6, 71.97 h): 36 nM
- Serum concentration (in vivo [1]; IV, rabbit 7, 1.13 h): 1210 nM
- Serum concentration (in vivo [1]; IV, rabbit 7, 11.98 h): < 18 nM
- Serum concentration (in vivo [1]; IV, rabbit 8, 1.12 h): 820 nM
- Serum concentration (in vivo [1]; IV, rabbit 8, 12.02 h): < 18 nM
- Serum concentration (in vivo [1]; IV, rabbit 9, 1.03 h): 720 nM
- Serum concentration (in vivo [1]; IV, rabbit 9, 11.97 h): < 18 nM
- Serum concentration (in vivo [1]; IV, rabbit 11, 2.08 h): 480 nM
- Serum concentration (in vivo [1]; IV, rabbit 12, 2.08 h): 450 nM
- AUC0−inf (in vivo [1]; [6]): 9.73 µM·h
- Cmax (in vivo [1]; [7]): 14400 nM
- half-life (in vivo [1]; [8]): 0.529 days
- Observed CSS (in vivo [2]; serum, mean±SD, n=16, after 17 weeks of oral mixture, MEHP after DEHP dosing): 51±28 (MEHP) ng/mL

Compound: O=S(=O)(O)C(F)(F)C(F)(F)C(F)(F)C(F)(F)C(F)(F)C(F)(F)C(F)(F)C(F)(F)F [nPFOS, linear isomer of perfluorooctane sulfonate]
- CL (in vivo [1]; IV mixture dosing, NCA, n=12): 0.00577 mL/min/kg
- MRT (in vivo [1]; IV mixture dosing, NCA, n=12): 40.5 days
- VSS (in vivo [1]; IV mixture dosing, NCA, n=12): 0.336 L/kg
- VZ (in vivo [1]; IV mixture dosing, NCA, n=12): 0.353 L/kg
- Serum concentration (in vivo [1]; IV, rabbit 1, 0.30 h): 320 nM
- Serum concentration (in vivo [1]; IV, rabbit 1, 4.38 h): 280 nM
- Serum concentration (in vivo [1]; IV, rabbit 1, 24.03 h): 260 nM
- Serum concentration (in vivo [1]; IV, rabbit 2, 0.28 h): 430 nM
- Serum concentration (in vivo [1]; IV, rabbit 2, 4.05 h): 280 nM
- Serum concentration (in vivo [1]; IV, rabbit 3, 0.35 h): 380 nM
- Serum concentration (in vivo [1]; IV, rabbit 3, 4.05 h): 370 nM
- Serum concentration (in vivo [1]; IV, rabbit 4, 0.62 h): 350 nM
- Serum concentration (in vivo [1]; IV, rabbit 4, 72.00 h): 290 nM
- Serum concentration (in vivo [1]; IV, rabbit 5, 0.75 h): 380 nM
- Serum concentration (in vivo [1]; IV, rabbit 5, 72.03 h): 310 nM
- Serum concentration (in vivo [1]; IV, rabbit 6, 0.57 h): 360 nM
- Serum concentration (in vivo [1]; IV, rabbit 6, 71.97 h): 330 nM
- Serum concentration (in vivo [1]; IV, rabbit 7, 11.98 h): 290 nM
- Serum concentration (in vivo [1]; IV, rabbit 7, 168.00 h): 270 nM
- Serum concentration (in vivo [1]; IV, rabbit 8, 12.02 h): 240 nM
- Serum concentration (in vivo [1]; IV, rabbit 8, 167.92 h): 230 nM
- Serum concentration (in vivo [1]; IV, rabbit 9, 11.97 h): 310 nM
- Serum concentration (in vivo [1]; IV, rabbit 9, 168.00 h): 280 nM
- Serum concentration (in vivo [1]; IV, rabbit 10, 671.96 h): 150 nM
- Serum concentration (in vivo [1]; IV, rabbit 11, 672.00 h): 160 nM
- Serum concentration (in vivo [1]; IV, rabbit 12, 671.83 h): 190 nM
- AUC0−inf (in vivo [1]; [6]): 330 µM·h
- Cmax (in vivo [1]; [7]): 427 nM
- half-life (in vivo [1]; [8]): 29.5 days
- Daily maintenance dose ([3]; to maintain serum concentration of 1 ng/mL, daily CL×Css/F): 0.0077 µg/kg
- Loading dose ([3]; to rapidly attain serum concentration of 1 ng/mL, Vss×Css/F): 0.37 µg/kg
